In PubChem BioAssay (NCI) one finds GI50 and TGI data, which are given here for 30 compounds.

The subject of the assay is MDA-MB-468 breast. Description: DTP human tumour cell line panel, 48 h.

Values joined by “and” are separate entries in the source; they are usually repeats but may differ in a detail not shown here. Identical values can stand only once.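 These data come from cells grown in 96-well plates and exposed to compound for 48 hours at five concentrations. Abbreviation: GI50, concentration required for 50% inhibition of growth. The concentration for full growth arrest is given as TGI.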

A word on the GI50: it is the concentration giving 50% growth inhibition. What is called TGI is the concentration giving total growth inhibition. `Clc1cc(Cl)cc(Nc2ccc3c(OCCCN4CCOCC4)cccc3n2)c1`: the GI50 was 2.08 µM and the TGI was determined as 4.33 µM.
On the same counts, the results for `CN(Cc1cnc2nc(N)nc(N)c2n1)c1c(Cl)cc(C(=O)NC(CCC(=O)O)C(=O)O)cc1Br` (stereo not given) are < 0.0118 µM and > 100 µM.
Consider `OCCN1CCCN(CCCN2c3ccccc3Sc3ccc(C(F)(F)F)cc32)CC1`, for which the GI50 was 1.61 µM and the TGI was determined as 3.57 µM.
On to `CN1CCC(C(=O)Nc2n[nH]c3nnc(-c4ccccc4)cc23)CC1`, for which the GI50 is > 18.1 µM and the TGI was > 25 µM.
In the case of `Cc1ncc([N+](=O)[O-])n1CCOc1ccc(C(=O)/C=C/c2ccc(C(F)(F)F)cc2)cc1`, the GI50 is 3.92 µM and the TGI was determined as 21.8 µM.
With `CC(C)(C)OC(=O)CC(S(=O)(=O)c1ccccc1)S(=O)(=O)c1ccccc1`, the GI50 is 1.71 µM and the TGI was 3.2 µM.
On to `COc1cc(C(=O)Nc2ccc(-c3nc4ccccc4[nH]3)cc2)cc(OC)c1OC`, for which the GI50 was 11.9 µM and the TGI came out at 28.4 µM.
`COc1cc2c(cc1OC)C(Sc1ccc(Cl)cc1)c1c(nc(N)c(C#N)c1N)O2` (stereo not given): the GI50 was 0.794 µM and the TGI worked out at 2.7 µM.
`COc1cc(-c2ccc[nH]2)[nH]c1/C=C1\N=C(C)C(C(=O)NC(C)C)=C1C`: the GI50 is 2.91 µM and the TGI was found to be 16.8 µM.
With `C#CCN(CCCOc1ccc(Cl)cc1Cl)CCCSC(=O)CCCCCN1/C(=C\C=C2/CCCC(/C=C/C3=[N+](CCCCCC(=O)[O-])c4ccccc4C3(C)C)=C2Cl)C(C)(C)c2ccccc21`, the GI50 was 1.35 µM and the TGI worked out at 3.67 µM.
Take `O=C(/C=C/c1ccccn1)c1ccccc1`: the GI50 was 1.8 µM and the TGI came out at 3.84 µM.
As for `CCOC(=O)c1c(-c2ccc(Cl)cc2)c(C#N)c(=S)n(C2OC(COC(C)=O)C(OC(C)=O)C(OC(C)=O)C2OC(C)=O)c1C` (stereo not given), the GI50 is > 100 µM and the TGI is > 100 µM.
Turning to `COc1ccc(C2CC(c3cccc(Nc4ccncc4)c3)=NN2c2ccccc2)cc1` (stereo not given), the GI50 is 1.42 µM and the TGI was found to be 2.82 µM.
In the case of `O=[N+]([O-])/C(=C/C=C/c1ccccc1)c1ccccc1`, the GI50 was 1.25 µM and the TGI is 3.09 µM.
Regarding `Nc1nc2c([nH]1)c1[nH]c3ccccc3c1c1[nH]c3ccccc3c21`, the GI50 is 2.02 µM and the TGI is 4.9 µM.
Take `Cc1nc2sc(C(=O)Nc3cccc(Cl)c3)c(N)c2cc1C(O)c1ccccc1` (stereo not given): the GI50 is 0.486 µM and the TGI was found to be 20.1 µM.
Turning to `COc1ccc(-c2nc3sccn3c2/C=C/C(=O)c2cc(OC)c(OC)c(OC)c2)cc1`, the GI50 is 2.44 µM and the TGI stood at 12.4 µM.
For `CNc1ccc(CSc2ccc(C)cc2)cc1`, the GI50 is 2.75 µM and the TGI is 9.9 µM.
As for `CN(C)CC(=O)N1CCc2c([nH]c3ccccc23)C1c1cccnc1` (stereo not given), the GI50 was 3.86 µM and the TGI turned out to be 52.9 µM.
On the same counts, the results for `C=C(c1ccc(C(=O)NCCCn2ccnc2)cc1)c1cc2c(cc1C)C(C)(C)CCC2(C)C` are 1.04 µM and 3.24 µM.
Regarding `O=C(Nc1ccc(-n2cc(-c3ccncc3)c(-c3ccc(Cl)c(O)c3)n2)cc1)c1ccc(Cl)c(Cl)c1`, the GI50 is 4.43 µM and the concentration for total growth inhibition (TGI) was > 100 µM.
In the case of `CC(C)(C)c1cnc(CSc2cnc(NC(=O)C3CCNCC3)s2)o1`, the GI50 is 0.097 µM and 0.0794 µM; the TGI is 0.344 µM and 0.306 µM.
For `COc1ccc(-c2nn(-c3cccc(Cl)c3)cc2-c2c(C#N)c(=O)n3[nH]c(-c4ccc(C)o4)nc3c2C#N)cc1`, the GI50 is 1.34 µM and the TGI was 4.93 µM.
On to `COc1ccc([C@H]2c3[nH]c4ccccc4c3C[C@H]3C(=O)N(CCCCCCC(=O)NO)CC(=O)N23)cc1`, for which the GI50 was 1.43 µM and the TGI was found to be 18.5 µM.
For `COc1ccccc1CNCCCN1C(=O)c2ccc3c4c(ccc(c24)C1=O)C(=O)N(CCCNCCCCN)C3=O`, the GI50 is 0.0907 µM and the TGI is 0.231 µM.
With `CC(=O)CCN1CC2CN=NC2(C#N)C1` (stereo not given), the GI50 is > 100 µM and the TGI is > 100 µM.
Turning to `Cn1cc(C2=C(c3cccc([N+](=O)[O-])c3)C(=O)NC2=O)c2ccccc21`, the GI50 was 5.85 µM and the TGI was > 25 µM.
On the same counts, the results for `CCCCCCC1CCCCN1C(c1ccccc1)C(O)c1ccccc1` (stereo not given) are 3.81 µM and 14.4 µM.
As to `COc1cc(/C=C/C(=O)/C=C/c2ccc(-n3ccnc3)cc2)ccc1O`, the GI50 was 2.2 µM and the TGI turned out to be 5.36 µM.
Turning to `COc1cc(C(=O)/C=C/c2c(C)n([O-])c3ccc(Cl)cc3[n+]2=O)cc(OC)c1OC`, the GI50 was 3.52 µM and the TGI came out at 19.3 µM.
